≈ marks a conversion by molar mass, not a printed value. Calls of active or inactive are those of the source. No cut-off for these calls is given here.
Legend:
[1] = tested on: Staphylococcus aureus; experiment: Antibacterial activity against methicillin-resistant Staphylococcus aureus; assay type: functional, organism-based
[2] = tested on: Enterococcus; experiment: Antibacterial activity against vancomycin-resistant Enterococcus; assay type: functional, organism-based
[3] = tested on: Candida albicans; experiment: Antifungal activity against fluconazole/ITC-resistant Candida albicans ATCC 90819 measured after 48 hrs by CLSI M27-A3 protocol based method; assay type: functional; conditions: ATCC 90819, 48 h
[4] = tested on: Nakaseomyces glabratus; experiment: Antifungal activity against Candida glabrata ATCC 2001 measured after 48 hrs by CLSI M27-A3 protocol based method; assay type: functional; conditions: CBS 138, 48 h
[5] = tested on: Aspergillus nidulans; experiment: Antifungal activity against Aspergillus nidulans ATCC 38163 measured after 48 hrs by CLSI M38-A2 protocol based method; assay type: functional; conditions: ATCC 38163, 48 h
[6] = tested on: A549; experiment: Cytotoxicity against human A549 cells after 24 hrs by resazurin based assay; assay type: cell-based; conditions: a549, 24 h
[7] = Selectivity index, ratio of CC50 for human A549 cells to MIC for fluconazole/ITC-resistant Candida albicans ATCC 10231; assay type: toxicity; conditions: read-out: Selectivity Index
[8] = Selectivity index, ratio of CC50 for human A549 cells to MIC for fluconazole/ITC-resistant Candida albicans ATCC 64124; assay type: toxicity; conditions: read-out: Selectivity Index
[9] = Selectivity index, ratio of CC50 for human A549 cells to MIC for fluconazole/ITC-susceptible Candida albicans ATCC MYA-2310; assay type: toxicity; conditions: read-out: Selectivity Index
[10] = Hemolytic activity in mouse RBC at […] ug/ml after 1 hr relative to control; assay type: ADME, cell-based, Erythrocyte; conditions: red blood cells (erythrocytes), read-out: Activity
[11] = Hemolytic activity in mouse RBC at 1.95 ug/ml after 1 hr relative to control; assay type: ADME, cell-based, Erythrocyte; conditions: red blood cells (erythrocytes), read-out: Activity
[12] = Hemolytic activity in mouse RBC at 3.9 ug/ml after 1 hr relative to control; assay type: ADME, cell-based, Erythrocyte; conditions: red blood cells (erythrocytes), read-out: Activity
[13] = Hemolytic activity in mouse RBC at 31.3 ug/ml after 1 hr relative to control; assay type: ADME, cell-based, Erythrocyte; conditions: red blood cells (erythrocytes), read-out: Activity
[14] = Hemolytic activity in mouse RBC at 62.5 ug/ml after 1 hr relative to control; assay type: ADME, cell-based, Erythrocyte; conditions: red blood cells (erythrocytes), read-out: Activity
[15] = Selectivity index, ratio of compound concentration showing <20 to <30% hemolysis in mouse RBC to MIC for fluconazole/ITC-resistant Candida albicans ATCC 64124; assay type: toxicity; conditions: red blood cells (erythrocytes), read-out: Selectivity Index
[16] = Selectivity index, ratio of compound concentration showing <20 to <30% hemolysis in mouse RBC to MIC for fluconazole/ITC-susceptible Candida albicans ATCC MYA-2310; assay type: toxicity; conditions: mouse red blood cells (RBC), read-out: Selectivity Index
[17] = Selectivity index, ratio of compound concentration showing <20 to <30% hemolysis in mouse RBC to MIC for fluconazole/ITC-resistant Candida albicans ATCC MYA-1237; assay type: toxicity; conditions: mouse red blood cells (RBC), read-out: Selectivity Index
[18] = Selectivity index, ratio of compound concentration showing <20 to <30% hemolysis in mouse RBC to MIC for fluconazole/ITC-resistant Candida albicans ATCC MYA-1003; assay type: toxicity; conditions: mouse red blood cells (RBC), read-out: Selectivity Index
[19] = Selectivity index, ratio of compound concentration showing <20 to <30% hemolysis in mouse RBC to MIC for Candida krusei ATCC 6258; assay type: toxicity; conditions: mouse red blood cells (RBC), read-out: Selectivity Index
[20] = Selectivity index, ratio of compound concentration showing <20 to <30% hemolysis in mouse RBC to MIC for Aspergillus flavus ATCC MYA-3631; assay type: toxicity; conditions: mouse red blood cells (RBC), read-out: Selectivity Index
[21] = Selectivity index, ratio of compound concentration showing <20 to <30% hemolysis in mouse RBC to MIC for Aspergillus nidulans ATCC 38163; assay type: toxicity; conditions: mouse red blood cells (RBC), read-out: Selectivity Index
[22] = Selectivity index, ratio of compound concentration showing <20 to <30% hemolysis in mouse RBC to MIC for Aspergillus terreus ATCC MYA-3633; assay type: toxicity; conditions: mouse red blood cells (RBC), read-out: Selectivity Index
[23] = tested on: Candida albicans; experiment: Fungicidal activity against fluconazole/ITC-resistant Candida albicans ATCC 10231 assessed as reduction in fungal growth at 0.5 to 2 times MIC incubated for 24 hrs followed by replating on PDA plates measured after 48 hrs Time-Kill assay; assay type: functional, organism-based

In the case of `C/C(=N\Nc1ccc(F)cc1)c1ccc(-c2ccc(/C(C)=N/Nc3ccc(F)cc3)cc2)cc1`, the Activity [1] is reported as “inactive”, the Activity [2] is reported as “inactive” and the MIC [3] is reported as 7.8 µg/mL (≈ 17.2 µM). For the same molecule, the MIC [4] was 15.6 µg/mL (≈ 34.3 µM), the MIC [5] was 7.8 µg/mL (≈ 17.2 µM) and the CC50 [6] was 16.6 µg/mL (≈ 36.5 µM). It also gave a selectivity ratio [7] of 8.5, a selectivity ratio [8] of 4.3 and a selectivity ratio [9] of 8.5. For the same molecule, the hemolysis at 1 h, 15.6 ug/ml ([10]; at 15.6 µg/mL) was 7.4%, the hemolysis at 1 h, 0.975 ug/ml [10] was 1.4% and the hemolysis at 1 h, 1.95 ug/ml [11] was 2.6%. For the same molecule, the hemolysis at 1 h, 3.9 ug/ml [12] was 2.6%, the hemolysis at 1 h, 31.3 ug/ml [13] was 9.5% and the hemolysis at 1 h, 62.5 ug/ml [14] was 26.2%. For the same molecule, the selectivity ratio [15] was 1 to 32, the selectivity ratio [16] was 1 to 32 and the selectivity ratio [17] was 1 to 32. The selectivity ratio [18] was 1 to 32, the selectivity ratio [19] was 1 to 32 and the selectivity ratio [20] was 1 to 32. The selectivity ratio [21] was 1 to 32, the selectivity ratio [22] was 1 to 32 and the Activity [23] was “Active”.

Source: ChEMBL document CHEMBL4411307, “N,N'-diaryl-bishydrazones in a biphenyl platform: Broad spectrum antifungal agents” (Eur J Med Chem, 2019)
